Experimental data published in US20190099383A1, “Transdermal Delivery of Selexipag Metabolite” (Samos Pharmaceuticals, Inc., priority 2017, published 2019).
Like-named read-outs stand apart in the source and are kept apart here.

Assays:
[1] = In vitro unenhanced skin flux, Franz diffusion cells; assay type: in vitro ADME, human; conditions: 168 hour period, saturated solution in 80/20% ethanol/water, no enhancers
Protocol: All in vitro skin permeation studies are conducted using the PermeGear Membrane Transport System. […] Skin flux studies are run for a period of 168 hours. […] The receiver compartment is refilled with fresh receiver medium.

[2] = Saturation concentration of the drug in the receptor medium; assay type: physicochemical; conditions: pH 7.4 water with 0.44 mg/ml OLETH 20
[3] = Formulation B enhancer system, 2, 4, 8, 12 and 24 hour time points (FIG. 1)
Protocol: One skin donor and three diffusion cells per formulation were used in these in vitro skin permeation experiments. Split thickness dermatomed (approximately at 375 μm) human cadaver skin was used to determine the permeation rate of the selexipag metabolite ACT 333679 in vitro. All in vitro skin permeation studies were conducted using the PermeGear Membrane Transport System (PermeGear, Inc., Hellertown, Pa.). Each Membrane Transport System consists of vertical, jacketed (37° C.±0.5° C.) Franz diffusion cells with magnetic stirrer and 1.7 cm^2 diffusion area.
Skin flux studies were run for a period of 48 hours. At predetermined intervals (3, 24 and 48 hours) after starting the experiment, the entire contents of the receiver compartment were collected for determination of the ACT 333679 concentration by HPLC. The receiver compartment was refilled with fresh receiver medium. The receiver medium was pH 7.4 water with 0.44 mg/ml of OLETH 20 (polyethylene glycol ether of oleyl alcohol) with the saturation concentration of the drug in the receptor medium being 0.23 mg/ml or 2 mg total in the receptor phase. […]
One skin donor and three diffusion cells per formulation were used in these in vitro skin permeation experiments. […] Samples in the receptor phase were obtained at the 2, 4, 8, 12 and 24 hour intervals and the amount of selexipag or ACT333679 was determined by HPLC.

prostacyclin IP receptor = prostacyclin IP receptor (Homo sapiens, UniProt P43119); conditions: ACT 333679 versus selexipag; cited from earlier work
Sequence of prostacyclin IP receptor (P43119 whole entry): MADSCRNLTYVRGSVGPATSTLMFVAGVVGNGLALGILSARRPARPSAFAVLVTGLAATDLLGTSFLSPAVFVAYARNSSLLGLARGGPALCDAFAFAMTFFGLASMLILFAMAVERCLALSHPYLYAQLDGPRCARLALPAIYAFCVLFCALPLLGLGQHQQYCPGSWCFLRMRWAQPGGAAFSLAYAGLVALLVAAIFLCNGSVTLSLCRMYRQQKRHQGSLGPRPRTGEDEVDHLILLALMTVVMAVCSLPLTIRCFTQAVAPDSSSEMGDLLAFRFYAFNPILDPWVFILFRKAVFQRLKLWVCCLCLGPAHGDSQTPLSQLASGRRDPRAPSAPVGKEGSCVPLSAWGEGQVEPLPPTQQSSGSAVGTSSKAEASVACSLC

[4] = rat; cited from earlier work
[5] = cited from earlier work
carboxylesterases = conditions: cited from earlier work
[6] = headache, diarrhea, pain in the jaw, nausea and myalgia; cited from earlier work

Row | saturation amount, total in the receptor phase [2] [mg] | saturation concentration of the drug in the receptor medium [2] [mg/mL] | permeation through skin compared with selexipag [3] | SMILES | average flux [1] | potency relative to selexipag (prostacyclin IP receptor) | oral bioavailability [4] [%] | effect of presence of food on AUC ([5]; presence of food) [%] | absorption ([5]; oral) [%] | metabolism of selexipag to ACT 333679 (carboxylesterases; carboxylases present in human plasma) | metabolism of selexipag to ACT 333679 (carboxylesterases; human hepatic microsomes) | difference in incidence of side effects between selexipag and placebo [6]
1 | 2 | 0.23 | higher than that of selexipag | CC(C)N(CCCCOCC(=O)O)c1cnc(-c2ccccc2)c(-c2ccccc2)n1 [ACT 333679] | 2.9 micrograms per square centimeter per hour | at least 16 times | 57 | 27 | – | – | – | –
2 | – | – | – | CC(C)N(CCCCOCC(=O)NS(C)(=O)=O)c1cnc(-c2ccccc2)c(-c2ccccc2)n1 [selexipag] | 1.2 micrograms per square centimeter per hour | – | – | – | ~60 | do not metabolize selexipag to ACT 333679 | metabolized to ACT 333679 from hepatic microsomes | higher than 10%
